Where “and” joins values, the source holds several entries; their conditions need not be identical. Equal entries are not always repeated. Where two headings read alike, the source gives them in different places.

The subject of data set [1] is subgenomic HCV replicons I389luc-ubi-neo/NS3-3′/5.1 (Huh 5-2). The data set can be described thus: Anti-HCV assay in Huh 5-2 cells (luciferase replicon). In kind it is cell-based, hepatitis C virus (HCV). The settings on record: for potency with respect to HCV compared with compound CHC5 (free nucleoside): comparison of Table I data. The text has this: (§1) Anti-HCV assay in Huh 7 cells. Huh 7 cells containing subgenomic HCV replicons I389luc-ubi-neo/NS3-3′/5.1 (Huh 5-2) or I377/NS3-3′/wt (Huh 9-13) have been described (Lohmann V, Korner F, Koch J, Herian U, Theilmann L, Bartenschlager R. (1999) Replication of subgenomic hepatitis C virus RNAs in a hepatoma cell line. Science 285:110-113. Lohmann V, Korner F, Dobierzewska A, Bartenschlager R. (2001) Mutations in hepatitis C virus RNAs conferring cell culture adaptation. J Virol. 75:1437-1449.). Cells were grown in Dulbecco's modified Eagle's Medium (DMEM; Gibco, Merelbeke, Belgium) supplemented with 10% heat-inactivated fetal bovine serum (FCS) (Integro, Zaandam, The Netherlands), 1× non-essential amino acids (Gibco), 100 IU/ml penicillin (Gibco), 100 μg/ml streptomycin (Gibco) and 250 μg/ml Geneticin (G418, Gibco) for Huh 5-2 cells, 1000 μg/ml G418 for Huh 9-13 cells
Anti-HCV Assay in Huh 5-2 Cells.
Huh 5-2 cells were seeded at a density of 5×10^3 per well in a tissue culture treated white 96-well view plate (Packard, Canberra, Canada) in complete DMEM supplemented with 250 μg/ml G418. Following incubation for 24 h at 37° C. (5% CO2) medium was removed and serial dilutions in complete DMEM (without G418) of the test compounds were added in a total volume of 100 μl. After 4 days of incubation at 37° C., cell culture medium was removed and luciferase activity was determined using the Steady-Glo luciferase assay system (Promega, Leiden, The Netherlands); the luciferase signal was measured using a Luminoskan Ascent (Thermo, Vantaa, Finland). The 50% effective concentration (EC50) was defined as the concentration of compound that reduced the luciferase signal by 50%.
In general terms: Replicon systems follow genome replication, usually without infectious particles.

Data set [2] in a line: CC50 (cytotoxicity, Table I). Conditions: human, Huh 7 cells; method and cell line not described. The data set is classed as cell-based.
The next data set relates to Huh 7 cells. The data set is described as follows: CC50 (cytotoxicity, Table I). In kind it is cell-based. Conditions: method and cell line not described.
The test system of data set [3] is subgenomic HCV replicons I377/NS3-3′/wt (Huh 9-13). The data set is described as follows: Anti-HCV assay in Huh 9-13 cells (RT-qPCR of replicon RNA). The settings on record: read-out: HCV Huh 9-13 EC50. In kind it is cell-based, hepatitis C virus (HCV).
Source text: as §1
Anti-HCV Assay in Huh 9-13 Cells.
Huh 9-13 cells were seeded at a density of 5×10^3 cells per well in 96-well cell culture plates in complete DMEM supplemented with 1000 μg/ml G418. Following incubation for 24 h at 37° C. cell culture medium was removed and serial dilutions of the test compounds in complete DMEM without G418 were added in a total volume of 100 μl. After 4 days of incubation at 37° C., cell culture fluid was removed and monolayers were washed once with phosphate-buffered saline. Cells were lysed in 350 μl RLT buffer (Qiagen, Venlo, The Netherlands) according to the Manufacturer's instruction. Lysates were stored at −80° C. until further use. […]
(In general: Real-time PCR tracks product formation cycle by cycle.)

Where [4] appears, read: Hepatitis C virus, Huh-5-2, 96 h, read-out: HCV Huh 5-2 EC50, Huh 5-2 cells, 4 days incubation, concentration that reduced the luciferase signal by 50%.
Where [5] appears, read: Huh 5-2 cells, 4 days incubation, concentration that reduced the luciferase signal by 50%, read-out: HCV Huh 5-2 EC50.

What is called CC50 is the concentration at which the toxic effect on the cells reaches its halfway point. High values mean lower toxicity to the cells, low ones greater toxicity to the cells. Regarding `C[C@H](NP(=O)(OC[C@H]1O[C@@H](n2cnc3c(N)ncnc32)C(C)(O)C1O)Oc1cccc2ccccc12)C(=O)OCc1ccccc1` (stereo partly drawn) [CHC3, β-2′-methyl-adenosine 5′-O-[α-naphthyl(benzoxy-L-alaninyl)]phosphate], the EC50 in data set [1] (setting [4]) came out at 160 nM. For the same molecule, it took 44000 nM to reach half-maximal cytotoxicity in data set [2] (CC50).
Consider `C[C@H](NP(=O)(OC[C@H]1O[C@@H](n2cnc3c(=O)[nH]c(N)nc32)C(C)(O)C1O)Oc1cccc2ccccc12)C(=O)OC(C)(C)C` (stereo partly drawn) [CHC8, β-2′-methyl-guanosine 5′-O-[α-naphthyl(tert-butoxy-L-alaninyl)]phosphate], for which, in data set [1] (setting [4]), the EC50 is greater than 50000 nM. Besides, the CC50 in data set [2] is greater than 50000 nM.
`CC1(O)C(O)[C@@H](CO)O[C@H]1n1cnc2c(N)ncnc21` (stereo partly drawn) [CHC1, β-2′-methyl-adenosine, reference compound]: the EC50 is 140 nM in data set [1] (Hepatitis C virus, Huh-5-2, 96 h, Huh 5-2 cells, 4 days incubation, concentration that reduced the luciferase signal by 50%, read-out: HCV Huh 5-2 EC50); 80 nM and 130 nM in data set [1] (setting [5]). Further, the results for the CC50 (in data set [2]; in the data set with Huh 7 cells) were 29000 nM and greater than 33000 nM, respectively.
Take `CCOC(=O)[C@H](C)NP(=O)(OC[C@H]1O[C@@H](n2cnc3c(=O)[nH]c(N)nc32)C(C)(O)C1O)Oc1cccc2ccccc12` (stereo partly drawn) [CHC7, β-2′-methyl-guanosine 5′-O-[α-naphthyl(ethoxy-L-alaninyl)]phosphate]: the EC50 in data set [1] (setting [4]) was 150 nM; in data set [1] (read-out: HCV Huh 5-2 EC50, Huh 5-2 cells, 4 days incubation, concentration that reduced the luciferase signal by 50%), 200 nM and 160 nM. The “potency with respect to HCV compared with compound CHC5 (free nucleoside)” value in data set [1] is “greater potency”. Besides, the half-maximal cytotoxic concentration (CC50) in data set [2] was greater than 50000 nM.
As to `CCOC(=O)[C@H](C)NP(=O)(OC[C@H]1O[C@@H](n2cnc3c(N)ncnc32)C(C)(O)C1O)Oc1cccc2ccccc12` (stereo partly drawn) [CHC2, β-2′-methyl-adenosine 5′-O-[α-naphthyl(ethoxy-L-alaninyl)]phosphate], the EC50 in data set [1] (setting [4]) came out at 120 nM. This molecule also registered a half-maximal cytotoxic concentration (CC50) in data set [2] greater than 50000 nM.
`C[C@@]1(O)[C@H](O)[C@@H](CO)O[C@H]1n1cnc2c(=O)[nH]c(N)nc21` [CHC5, β-2′-methyl-guanosine, reference compound]: the EC50 in data set [1] (setting [5]) is 3000 nM and 5000 nM; in data set [3] (Huh 9-13 cells, 4 days incubation, concentration that reduced replicon RNA content by 50% (RT-qPCR)), 1500 nM. This molecule yielded a CC50 in the data set on Huh 7 cells greater than 50000 nM.
Take `C[C@H](NP(=O)(OC[C@H]1O[C@@H](n2cnc3c(N)ncnc32)C(C)(O)C1O)Oc1cccc2ccccc12)C(=O)OC(C)(C)C` (stereo partly drawn) [CHC4, β-2′-methyl-adenosine 5′-O-[α-naphthyl(tert-butoxy-L-alaninyl)]phosphate]: in data set [1] (setting [4]), the EC50 was 2360 nM. The same molecule showed a CC50 in data set [2] greater than 50000 nM.
Consider `C[C@H](NP(=O)(OC[C@H]1O[C@@H](n2cnc3c(=O)[nH]c(N)nc32)C(C)(O)C1O)Oc1ccccc1)C(=O)OCc1ccccc1` (stereo partly drawn) [CHC9, β-2′-methyl-guanosine 5′-O-[phenyl(benzoxy-L-alaninyl)]phosphate], for which the EC50 in data set [1] (setting [4]) worked out at 36000 nM; in data set [3] (Hepatitis C virus, 96 h), 4100 nM. Also, the CC50 in data set [2] was greater than 50000 nM.
As for `C[C@H](NP(=O)(OC[C@H]1O[C@@H](n2cnc3c(=O)[nH]c(N)nc32)C(C)(O)C1O)Oc1cccc2ccccc12)C(=O)OCc1ccccc1` (stereo partly drawn) [CHC6, β-2′-methyl-guanosine 5′-O-[α-naphthyl(benzoxy-L-alaninyl)]phosphate], the “potency with respect to HCV compared with compound CHC5 (free nucleoside)” value in data set [1] is reported as “greater potency”. In addition, the EC50 in data set [3] (Hepatitis C virus, 96 h) worked out at 60 nM. The molecule also gave a CC50 in data set [2] greater than 50000 nM.

For the origin of these results see patent publication US8658616B2, “Nucleoside aryl phosphoramidates and their use as anti-viral agents for the treatment of hepatitis C virus” (University College Cardiff Consultants Limited, priority 2006, dated 2014).
